Earlier results, collected in paper PMC9347208, “Pharmacological activation of the hERG K^+ channel for the management of the long QT syndrome: A review” (Journal of Arrhythmia, 2022).
Entries after “also recorded” stand apart in the source; their conditions may differ. Like-named read-outs stand apart in the source and are kept apart here.

How the values were obtained:
hERG channel [1] = test system: hERG channel
ICa,L [2] = test system: ICa,L; set-up: method as in PMID 29050968, PMID 18042732; settings: ventricular cardiomyocytes isolated from rabbit hearts; ref [41], [83]
Ito = test system: Ito; set-up: method as in PMID 29050968, PMID 18042732; settings: ventricular cardiomyocytes isolated from rabbit hearts; ref [41], [83]
IKr = settings: native human cardiomyocytes from LQT1 patients; ref [19], [29]
hKv4.3 (Ito) = settings: ref [19], [29]
hCav1.2 (ICa,L) = test system: hCav1.2 (ICa,L); set-up: method as in column Ref. of the table row
hERG channel [3] = settings: astemizole, sertindole, dofetilide, and cisapride, radioligand assays, ref [19] and column References of the table row
hKir2.1 (IK1) = settings: ref [19], [29]
[4] = test system: neuronal Kv12.1 ether‐à‐ go‐go‐gene‐like (elk3) channel; set-up: method as in PMID 24041920, PMID 25809254, PMID 18452879, PMID 29050968, PMID 25191697; settings: ref [16], [27], [32], [41], [48], [58], [61], [70], [84]
hERG1a and hERG1b = test system: hERG1a and hERG1b; set-up: method as in column Ref. of the table row
hERG channel [5] = settings: for Type: type of hERG activator by main mechanism of action, ref [40]
[6] = test system: ventricular repolarisation (APD, QT interval)
guinea pig hearts = settings: Langendorff‐perfused Guinea pig hearts, high concentrations; ref [16], [27], [32], [41], [48], [58], [61], [70], [84]
hERG channel mutants = test system: hERG channel mutants; set-up: method as in column Ref. of the table row; settings: mutation named in the value
E637K hERG mutant = test system: E637K hERG mutant; set-up: method as in PMID 15976038, PMID 29050968, PMID 19892732, PMID 31877041, PMID 23840331; settings: ref [22], [41], [52], [53], [59], [60]
ICa,L [7] = settings: recorded from guinea pig cardiomyocytes
SQT1 model = test system: SQT1 model; set-up: method as in column Ref. of the table row; settings: by creating the substrate for reentry
IKs = test system: IKs; set-up: method as in PMID 15976038, PMID 29050968, PMID 19892732, PMID 31877041, PMID 23840331; settings: recorded from isolated guinea pig cardiomyocytes; ref [22], [41], [52], [53], [59], [60]
[8] = test system: APD, EADs, and QT prolongation; set-up: method as in PMID 15976038, PMID 29050968, PMID 19892732, PMID 31877041, PMID 23840331; settings: 3 μM; caused by high‐affinity inhibitor dofetilide; ref [22], [41], [52], [53], [59], [60]
[9] = test system: perfused canine atrial preparations; set-up: method as in PMID 15976038, PMID 29050968, PMID 19892732, PMID 31877041, PMID 23840331; settings: ERP abbreviation and TDR amplification, ref [22], [41], [52], [53], [59], [60]
Kv1.5 (IKur) = settings: 50 μM; ref [19], [21]
[10] = test system: Dofetilide‐induced arrhythmias; settings: after pretreatment; ref [19], [21]
[11] = suggested, as no change to AP amplitude and diastolic potential of guinea pig cardiomyocytes
[12] = recorded from isolated guinea pig cardiomyocytes, ref [22], [41], [52], [53], [59], [60]

For `O=C(O)c1cccnc1Nc1ccc2c(c1)CN(c1ccc(Cl)c(Cl)c1)C2` [PD‐307243], which “Channel selectivity: effect on recombinant hKCNQ1‐KCNE1 (IKs)” value (hKCNQ1‐KCNE1 (IKs)) is on record?
Its value is “No effect”.

And the “Reported benefit for LQT: activator effect in presence of BeKm‐1” value (hERG channel [1]; ref [41], [83])?
The value was “potentiated”.

What about the “Reported benefit for LQT: diLQTS, interaction with dofetilide” value (hERG channel [1]; ref [41], [83]) of the same compound?
Its value is “Dofetilide prevents the activator effect of PD and unmasks its current suppressing effect”.

What about the “Channel selectivity: effect on ICa,L” value (ICa,L [2]) of the same compound?
Its value is “Activates”.

What about the “Channel selectivity: effect on recombinant hNav1.5 (INa)” value (hNav1.5 (INa)) of the same compound?
The value was “No effect”.

And the “Channel selectivity: effect on Ito” value (Ito)?
The value was “no effect”.

Which “Channel selectivity: effect on hKCNQ1‐KCNE1 channels (IKs)” value (hKCNQ1‐KCNE1 (IKs); 10 μM, ref [19], [29]) does the source give for `O=C(COc1ccc(C(=O)c2ccccc2)cc1)Nc1cccnc1` [ML‐T531] here?
The value was “minor suppressive effect”.

And the “Reported benefit for LQT: cLQTS, IKr” value (IKr)?
The value was “IKr increase”.

What about the “Channel selectivity: effect on recombinant hKv4.3 (Ito)” value (hKv4.3 (Ito)) of the same compound?
Its value is “No effect”.

What about the “Channel selectivity: effect on recombinant hCav1.2 (ICa,L)” value (hCav1.2 (ICa,L)) of the same compound?
Its value is “No effect”.

And the “Allosteric effect on the binding of hERG blockers” value (from here on “Allosteric effect on the binding”) (hERG channel [3])?
Its value is “Negative effect on the binding”.

What about the “Allosteric effect on the binding” value (hERG channel [3]; listed as MLT‐531) of the same compound?
Its value is “negative allosteric modulators”.

And the “Channel selectivity: effect on recombinant hNav1.5 (INa)” value (hNav1.5 (INa))?
The value was “No effect”.

And the “Channel selectivity: effect on recombinant hKir2.1 (IK1)” value (hKir2.1 (IK1))?
Its value is “No effect”.

With `O=C(Nc1cc(C(F)(F)F)ccc1O)Nc1cc(C(F)(F)F)ccc1O` [NS1643, 1,3‐bis‐(2‐hydroxy‐5‐trifluoromethyl‐phenyl)‐urea] as the compound, how does the “Reported benefit for LQT: diLQTS, effects of hERG inhibition by drug inhibitors” value (hERG channel [1]; 10 μM, inhibitors e.g. E‐4031, dofetilide, moxifloxacin, ref [16], [27], [32], [41], [48], [58], [61], [70], [84]) read?
The value was “attenuate electrophysiological effects associated with hERG inhibition by various drug inhibitors; also recorded: did not reverse the inhibition to the control levels”.

What about the “Channel selectivity: effect on neuronal Kv12.1 (elk3) channel” value [4] of the same compound?
Its value is “Inhibitor”.

What about the “Channel selectivity: effect on cardiac IK1” value (IK1; [11]) of the same compound?
Its value is “Suggested absence”.

What about the “Channel selectivity: sensitivity of hERG1a versus hERG1b” value (hERG1a and hERG1b) of the same compound?
Its value is “Differential sensitivity”.

What about the “Potency in reducing hERG channel inactivation” value (hERG channel [5]; ref [16], [31]) of the same compound?
Its value is “modest potency compared with ICA‐105574”.

What about the Type (hERG channel [5]) of the same compound?
The Type was 1, 2, and possibly 3.

And the “Channel selectivity: effect on cardiac INa” value (INa; [11])?
Its value is “Suggested absence”.

What about the “Effect against Nav1.5 channels” value (hNav1.5 (INa); ref [32]) of the same compound?
The value was “inhibitory effects”.

What about the “Efficacy against triggered activity” value ([6]; low concentration, in vitro and ex vivo experimental models, ref [32]) of the same compound?
Its value is “effective against triggered activity”.

And the “TDR and instability of the QT interval” value ([6]; only in the presence of an I Ks inhibitor, ref [16])?
Its value is “markedly amplify”.

And the “Reported associated pro‐arrhythmic risk: ventricular tachycardia and fibrillation” value (guinea pig hearts)?
The value was “Induces ventricular tachycardia and ventricular fibrillation”.

Which results are given for `O=C(O)c1ccccc1Nc1ccc(CCc2ccc(Cl)c(Cl)c2)cc1` [PD‐118057]?
Molecular determinants of activity: effect of hERG mutations on agonist activity (hERG channel mutants): Mutation to F619 and L646 suppresses agonist activity; also recorded: Mutation to C643 and M645 enhances drug activity; Reported benefit for LQTS: cLQTS, rescue of E637K hERG mutant (E637K hERG mutant): Failed to rescue; Channel selectivity: effect on cardiac ICa,L (ICa,L [7]): No effect on INa, ICa‐L, IK1, and IKs recorded from isolated guinea pig cardiomyocytes.; Channel selectivity: effect on IK1 (IK1; [12]): No effect on INa, ICa‐L, IK1, and IKs recorded from isolated guinea pig cardiomyocytes.; Reported associated pro‐arrhythmic risk: SQT1 manifestations (SQT1 model): Recapitulates the electrophysiological and arrhythmic manifestations of SQT1; Type (hERG channel [5]): 4; Channel selectivity: effect on IKs (IKs): No effect on INa, ICa‐L, IK1, and IKs recorded from isolated guinea pig cardiomyocytes.; Channel selectivity: effect on INa (INa; [12]): No effect on INa, ICa‐L, IK1, and IKs recorded from isolated guinea pig cardiomyocytes.; Reported benefit for LQTS: diLQTS [8]: prevents APD, EADs, and QT prolongation; Effect on PRRP and QT interval ([6]; ref [21], [60], [61]): increase the PRRP and shorten the QT interval but potentially to the point of triggering arrhythmia; Reported associated pro‐arrhythmic risk: arrhythmia provocations [9]: Increases arrhythmia provocations

Which “Channel selectivity: effect on recombinant KCNQ1 + KCNE1 (IKs)” value (hKCNQ1‐KCNE1 (IKs); 50 μM, ref [19], [21]) does the source give for `O=C(COc1ccc2ccccc2c1Br)Nc1cccnc1` [VU0405601] here?
Its value is “No or small effect of 50 μM on recombinant cardiac Kv1.5 (IKur), Nav1.5 (INa), and KCNQ1 + KCNE1 (IKs) channels”.

And the “Allosteric effect on the binding” value (hERG channel [3])?
Its value is “negative allosteric modulators; also recorded: weaken interactions”.

And the “Channel selectivity: effect on recombinant cardiac Kv1.5 (IKur)” value (Kv1.5 (IKur))?
The value was “No or small effect of 50 μM on recombinant cardiac Kv1.5 (IKur), Nav1.5 (INa), and KCNQ1 + KCNE1 (IKs) channels”.

What about the “Channel selectivity: effect on recombinant Nav1.5 (INa)” value (hNav1.5 (INa); 50 μM, ref [19], [21]) of the same compound?
The value was “No or small effect of 50 μM on recombinant cardiac Kv1.5 (IKur), Nav1.5 (INa), and KCNQ1 + KCNE1 (IKs) channels”.

And the “Reported benefit for LQT: diLQTS, dofetilide‐induced arrhythmias” value [10]?
Its value is “reduced”.
